28 compounds from patent US12384787B2, “Fused heterocyclic compounds and their use as pest control agents” (PI INDUSTRIES LTD., priority 2019, dated 2025) can be followed below.

This assay concerns Plutella xylostella. The experiment in a line: Plutella xylostella leaf dip method (cabbage leaves). Conditions: foliar, second instar larvae, 72 h after release, dead and moribund combined, compared to untreated control, read-out: Percent mortality. Type of assay: in vivo. Here is the method:
The leaf dip method was used for testing, wherein the required quantity of the compounds were weighed and dissolved in a surfactant solution, kept on a Vortex at 2000 rpm with zirconia beads for 90 min for proper mixing and then diluted with 0.01% Triton-X solution to the desired test concentration. Cabbage leaves were dipped in the solution for 10 seconds, shade dried for 20 min and then transferred to bioassay trays. A single second instar larva was released into each bioassay tray cell and the tray was covered with a lid. The bio-assay trays were kept under laboratory conditions at a temperature of 25° C. and relative humidity of 70%. Observations on dead, moribund and living larvae were recorded at 72 h after the release. Percent mortality was calculated by combining dead and moribund larvae and comparing the result to the one of the untreated control.
The mortality is the share of the test organisms that died. For the compound `CCS(=N)(=O)c1nn2c(-c3cc(Cl)cc(Cl)c3)ccnc2c1-c1nc2cc(C(F)(F)F)cnc2n1C` (stereo not shown) [Compound 135, (7-(3,5-Dichlorophenyl)-3-(3-methyl-6-(trifluoromethyl)-3H-imidazo[4,5-b]pyridin-2-yl)pyrazolo[1,5-a]pyrimidin-2-yl)(ethyl)(imino)-λ^6-sulfanone], the mortality at 300 ppm is > 70%. The value for `CCS(=O)(=O)c1nn2cc(-c3ccccc3)cnc2c1-c1nc2cc(C(F)(F)F)ncc2n1C` [Compound 66, 2-(2-(Ethylsulfonyl)-6-phenylpyrazolo[1,5-a]pyrimidin-3-yl)-3-methyl-6-(trifluoromethyl)-3H-imidazo[4,5-c]pyridine] was > 70%. The value for `CCS(=O)(=O)c1nn2c(-c3ccc(OC(F)(F)F)cc3)ccnc2c1-c1nc2cc(C(F)(F)F)ncc2n1C` [Compound 30, 2-(2-(Ethylsulfonyl)-7-(4-(trifluoromethoxy)phenyl)pyrazolo[1,5-a]pyrimidin-3-yl)-3-methyl-6-(trifluoromethyl)-3H-imidazo[4,5-c]pyridine] was > 70%; that for `CCS(=O)(=O)c1nn2c(-c3ccc(F)cc3)ccnc2c1-c1nc2cc(S(=O)(=O)C(F)(F)F)ccc2o1` [Compound 34, 2-(2-(Ethylsulfonyl)-7-(4-fluorophenyl)pyrazolo[1,5-a]pyrimidin-3-yl)-5-((trifluoromethyl)sulfonyl)benzo[d]oxazole] was > 70%; that for `CCS(=O)(=O)c1cc2cc(C(F)(F)F)ccn2c1-c1nc2cc(C(F)(F)F)cnc2n1C` [Compound 5, 2-(2-(Ethylsulfonyl)-7-(trifluoromethyl)indolizin-3-yl)-3-methyl-6-(trifluoromethyl)-3H-imidazo[4,5-b]pyridine] was > 70%. The value for `CCSc1nn2c(-c3ccc(F)cc3)ccnc2c1-c1nc2cc(C(F)(F)F)ncc2n1C` [Compound 20, 2-(2-(Ethylthio)-7-(4-fluorophenyl)pyrazolo[1,5-a]pyrimidin-3-yl)-3-methyl-6-(trifluoromethyl)-3H-imidazo[4,5-c]pyridine] was > 70%; that for `CCS(=O)(=O)c1nn2c(-c3cc(Cl)cc(Cl)c3)ccnc2c1-c1nc2cc(S(=O)(=O)C(F)(F)F)ccc2o1` [Compound 43, 2-(7-(3,5-Dichlorophenyl)-2-(ethylsulfonyl)pyrazolo[1,5-a]pyrimidin-3-yl)-5-((trifluoromethyl)sulfonyl)benzo[d]oxazole] was > 70%; that for `CCS(=O)(=O)c1nn2ccc(-c3ccc(F)cc3)nc2c1-c1nc2cc(C(F)(F)F)cnc2n1C` [Compound 62, 2-(2-(Ethylsulfonyl)-5-(4-fluorophenyl)pyrazolo[1,5-a]pyrimidin-3-yl)-3-methyl-6-(trifluoromethyl)-3H-imidazo[4,5-b]pyridine] was > 70%.

On to `CCS(=O)(=O)c1nn2cc(-c3ccc(OC(F)(F)F)cc3)cnc2c1-c1nc2cc(C(F)(F)F)ncc2n1C` [Compound 100, 2-(2-(Ethylsulfonyl)-6-(4-(trifluoromethoxy)phenyl)pyrazolo[1,5-a]pyrimidin-3-yl)-3-methyl-6-(trifluoromethyl)-3H-imidazo[4,5-c]pyridine], for which the mortality at 300 ppm is > 70%. The value for `CCS(=O)(=O)c1cc2c(-c3cc(Cl)cc(Cl)c3)cccn2c1-c1nc2cc(C(F)(F)F)cnc2n1C` [Compound 6, 2-(8-(3,5-Dichlorophenyl)-2-(ethylsulfonyl)indolizin-3-yl)-3-methyl-6-(trifluoromethyl)-3H-imidazo[4,5-b]pyridine] was > 70%. The value for `CCS(=O)(=O)c1nn2c(-c3cccc(F)c3)ccnc2c1-c1nc2cc(C(F)(F)F)cnc2n1C` [Compound 130, 2-(2-(Ethylsulfonyl)-7-(3-fluorophenyl)pyrazolo[1,5-a]pyrimidin-3-yl)-3-methyl-6-(trifluoromethyl)-3H-imidazo[4,5-b]pyridine] was > 70%. The value for `CCS(=O)(=O)c1nn2c(-c3cccc(Cl)c3Cl)ccnc2c1-c1nc2cc(C(F)(F)F)cnc2n1C` [Compound 114, 2-(7-(2,3-Dichlorophenyl)-2-(ethylsulfonyl)pyrazolo[1,5-a]pyrimidin-3-yl)-3-methyl-6-(trifluoromethyl)-3H-imidazo[4,5-b]pyridine] was > 70%. With `CCS(=O)(=O)c1nn2ccc(-c3cc(Cl)cc(Cl)c3)nc2c1-c1nc2cc(C(F)(F)F)cnc2n1C` [Compound 67, 2-(5-(3,5-Dichlorophenyl)-2-(ethylsulfonyl)pyrazolo[1,5-a]pyrimidin-3-yl)-3-methyl-6-(trifluoromethyl)-3H-imidazo[4,5-b]pyridine], the mortality at 300 ppm was > 70%.

For the compound `CCS(=O)(=O)c1nn2cc(-c3ccc(Cl)cc3)cnc2c1-c1nc2cc(C(F)(F)F)ncc2n1C` [Compound 74, 2-(6-(4-Chlorophenyl)-2-(ethylsulfonyl)pyrazolo[1,5-a]pyrimidin-3-yl)-3-methyl-6-(trifluoromethyl)-3H-imidazo[4,5-c]pyridine], the mortality at 300 ppm is > 70%. Consider `CCS(=O)(=O)c1nn2cccnc2c1-c1nc2cc(S(=O)(=O)C(F)(F)F)ccc2o1` [Compound 18, 2-(2-(Ethylsulfonyl)pyrazolo[1,5-a]pyrimidin-3-yl)-5-((trifluoromethyl)sulfonyl)benzo[d]oxazole], for which the mortality at 300 ppm is > 70%. The value for `CCS(=O)(=O)c1nn2cc(-c3ccc(OC(F)(F)C(F)F)cc3)cnc2c1-c1nc2cc(C(F)(F)F)cnc2n1C` [Compound 96, 2-(2-(Ethylsulfonyl)-6-(4-(1,1,2,2-tetrafluoroethoxy)phenyl)pyrazolo[1,5-a]pyrimidin-3-yl)-3-methyl-6-(trifluoromethyl)-3H-imidazo[4,5-b]pyridine] was > 70%; that for `CCSc1nn2c(-c3ccc(OC(F)(F)F)cc3)ccnc2c1-c1nc2cc(C(F)(F)F)cnc2n1C` [Compound 27, 2-(2-(Ethylthio)-7-(4-(trifluoromethoxy)phenyl)pyrazolo[1,5-a]pyrimidin-3-yl)-3-methyl-6-(trifluoromethyl)-3H-imidazo[4,5-b]pyridine] was > 70%. The value for `CCSc1nn2cc(-c3ccc(OC(F)(F)C(F)F)cc3)cnc2c1-c1nc2cc(C(F)(F)F)cnc2n1C` [Compound 95, 2-(2-(Ethylthio)-6-(4-(1,1,2,2-tetrafluoroethoxy)phenyl)pyrazolo[1,5-a]pyrimidin-3-yl)-3-methyl-6-(trifluoromethyl)-3H-imidazo[4,5-b]pyridine] was > 70%.

Take `CCS(=O)(=O)c1nn2c(C)cc(C)nc2c1-c1nc2cc(C(F)(F)F)ncc2n1C` [Compound 12, 2-(2-(Ethylsulfonyl)-5,7-dimethylpyrazolo[1,5-a]pyrimidin-3-yl)-3-methyl-6-(trifluoromethyl)-3H-imidazo[4,5-c]pyridine]: the mortality at 300 ppm is > 70%.

Regarding `CCS(=O)(=O)c1nn2c(-c3ccccc3)ccnc2c1-c1nc2cc(C(F)(F)F)cnc2n1C` [Compound 115, 2-(2-(Ethylsulfonyl)-7-phenylpyrazolo[1,5-a]pyrimidin-3-yl)-3-methyl-6-(trifluoromethyl)-3H-imidazo[4,5-b]pyridine], the mortality at 300 ppm is > 70%. The value for `CCS(=O)(=O)c1nn2c(-c3cccc(F)c3)ccnc2c1-c1nc2cc(C(F)(F)F)ncc2n1C` [Compound 137, 2-(2-(Ethylsulfonyl)-7-(3-fluorophenyl)pyrazolo[1,5-a]pyrimidin-3-yl)-3-methyl-6-(trifluoromethyl)-3H-imidazo[4,5-c]pyridine] was > 70%; that for `CCS(=O)(=O)c1nn2c(-c3ccc(OC(F)(F)F)cc3)ccnc2c1-c1nc2cc(C(F)(F)F)cnc2n1C` [Compound 29, 2-(2-(Ethylsulfonyl)-7-(4-(trifluoromethoxy)phenyl)pyrazolo[1,5-a]pyrimidin-3-yl)-3-methyl-6-(trifluoromethyl)-3H-imidazo[4,5-b]pyridine] was > 70%; that for `CCS(=O)(=O)c1nn2c(-c3ccc(Cl)cc3)ccnc2c1-c1nc2cc(S(=O)(=O)C(F)(F)F)ccc2o1` [Compound 40, 2-(7-(4-Chlorophenyl)-2-(ethylsulfonyl)pyrazolo[1,5-a]pyrimidin-3-yl)-5-((trifluoromethyl)sulfonyl)benzo[d]oxazole] was > 70%.

Turning to `CCSc1nn2cc(Cl)cnc2c1-c1nc2cc(C(F)(F)F)cnc2n1C` [Compound 48, 2-(6-Chloro-2-(ethylthio)pyrazolo[1,5-a]pyrimidin-3-yl)-3-methyl-6-(trifluoromethyl)-3H-imidazo[4,5-b]pyridine], the mortality at 300 ppm is > 70%. Consider `CCS(=O)(=O)c1nn2ccc(-c3cc(Cl)cc(Cl)c3)nc2c1-c1nc2cc(C(F)(F)F)ncc2n1C` [Compound 69, 2-(5-(3,5-Dichlorophenyl)-2-(ethylsulfonyl)pyrazolo[1,5-a]pyrimidin-3-yl)-3-methyl-6-(trifluoromethyl)-3H-imidazo[4,5-c]pyridine], for which the mortality at 300 ppm is > 70%.

`CCS(=O)(=O)c1nn2c(C)ccnc2c1-c1nc2cc(C(F)(F)F)cnc2n1C` [Compound 133, 2-(2-(Ethylsulfonyl)-7-methylpyrazolo[1,5-a]pyrimidin-3-yl)-3-methyl-6-(trifluoromethyl)-3H-imidazo[4,5-b]pyridine]: the mortality at 300 ppm is > 70%. The value for `CCS(=O)(=O)c1nn2ccc(-c3ccccc3)nc2c1-c1nc2cc(C(F)(F)F)ncc2n1C` [Compound 46, 2-(2-(Ethylsulfonyl)-5-phenylpyrazolo[1,5-a]pyrimidin-3-yl)-3-methyl-6-(trifluoromethyl)-3H-imidazo[4,5-d]pyridine] was > 70%; that for `CCSc1nn2cc(-c3cc(Cl)cc(Cl)c3)cnc2c1-c1nc2cc(C(F)(F)F)ncc2n1C` [Compound 80, 2-(6-(3,5-Dichlorophenyl)-2-(ethylthio)pyrazolo[1,5-a]pyrimidin-3-yl)-3-methyl-6-(trifluoromethyl)-3H-imidazo[4,5-c]pyridine] was > 70%.
